Results published in patent US12448388B2, “PRMT5 inhibitors and uses thereof” (Gilead Sciences, Inc., priority 2023, dated 2025).
Like-named read-outs stand apart in the source and are kept apart here.

System: HCT116 MTAP-deleted cell lines
Assay: Cell viability assay (CellTiter-Glo, 7 days), HCT116 MTAP-deleted
Format: cell-based
Conditions: Homo sapiens, HCT-116, HCT116 MTAP-deleted, class symbols, read-out: CC50
Summary of the method: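 First, compounds are serially diluted in DMSO and dispensed into plates, which are frozen until seeding. Next, cells are added and incubated 7 days at 37 °C, 5% CO2, 90% humidity. Finally, CellTiter-Glo reagent is added and luminescence is measured to derive CC50.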

| Structure (SMILES) | CC50 (cell viability) [nM] | CC50 (cell viability assay) [nM] |
| --- | --- | --- |
| Nc1nc2ccc(C(=O)N3CCC[C@@H]4OCc5cc(OC(F)F)ccc5[C@@H]43)cc2n2cncc12 (racemic) [Ff-288, Rac-(4-aminoimidazo[1,5-a]quinoxalin-8-yl)((4aS,10bS)-8-(difluoromethoxy)-2,3,4,4a,6,10b-hexahydro-1H-isochromeno[4,3-b]pyridin-1-yl)methanone] | < 100 |  |
| Cc1nn(C)c(C)c1N(Cc1ccc(C(F)(F)F)cc1F)C(=O)c1cc2c(cc1F)nc(N)c1cncn12 [Ff-417, 4-amino-7-fluoro-N-[[2-fluoro-4-(trifluoromethyl)phenyl]methyl]-N-(1,3,5-trimethylpyrazol-4-yl)imidazo[1,5-a]quinoxaline-8-carboxamide] |  | < 100 |
| CN(C(=O)c1ccc2nc(N)c3cncn3c2c1)[C@@H]1COc2cc(C#CC(C)(C)S(C)(=O)=O)ccc21 [Ff-526, (S)-4-amino-N-methyl-N-(6-(3-methyl-3-(methylsulfonyl)but-1-yn-1-yl)-2,3-dihydrobenzofuran-3-yl)imidazo[1,5-a]quinoxaline-8-carboxamide] |  | 100 to 1000 |
| Cc1ncn2c1c(N)nc1cnc(C(=O)N3CCC[C@@H]4Oc5c(ccc(C(F)(F)F)c5F)[C@@H]43)cc12 [Ff-119, (4-amino-3-methylimidazo[1,5-a]pyrido[3,4-e]pyrazin-8-yl)((4aS,9bS)-6-fluoro-7-(trifluoromethyl)-3,4,4a,9b-tetrahydrobenzofuro[3,2-b]pyridin-1(2H)-yl)methanone] | < 100 |  |
| COc1cc2c(cc1F)[C@H]1[C@H](CCCN1C(=O)c1cc3c(cc1F)nc(N)c1cncn13)OC2 (racemic) [Ff-300, Rac-(4-amino-7-fluoroimidazo[1,5-a]quinoxalin-8-yl)((4aS,10bS)-9-fluoro-8-methoxy-2,3,4,4a,6,10b-hexahydro-1H-isochromeno[4,3-b]pyridin-1-yl)methanone] | < 100 |  |
| CN1CC[C@@H](N(Cc2ccc(C(F)(F)F)cc2F)C(=O)c2cc3c(cc2F)nc(N)c2cncn23)C1=O [Ff-70, 4-amino-7-fluoro-N-[[2-fluoro-4-(trifluoromethyl)phenyl]methyl]-N-[(3R)-1-methyl-2-oxo-pyrrolidin-3-yl]imidazo[1,5-a]quinoxaline-8-carboxamide] | < 100 |  |
| Cc1ncn2c1c(N)nc1cnc(C(=O)N3CC(C)(C)CC4Oc5cc(OC(F)(F)F)ccc5C43)cc12 (stereo not drawn) [Fg-27, (4-amino-3-methylimidazo[1,5-a]pyrido[3,4-e]pyrazin-8-yl)(3,3-dimethyl-7-(trifluoromethoxy)-3,4,4a,9b-tetrahydrobenzofuro[3,2-b]pyridin-1(2H)-yl)methanone] |  | 100 to 1000 |
| Nc1nc2cc(F)c(C(=O)N3CCN(C4COC4)CC3c3ccc(C(F)(F)F)cn3)cc2n2cncc12 (stereo not drawn) [Ff-140, (4-amino-7-fluoroimidazo[1,5-a]quinoxalin-8-yl)(4-(oxetan-3-yl)-2-(5-(trifluoromethyl)pyridin-2-yl)piperazin-1-yl)methanone] | 100 to 1000 |  |
| CN(C(=O)c1cc2c(cc1F)nc(N)c1cncn12)[C@H]1c2ccc(Br)cc2[C@H]2C[C@H]21 [Ff-313, 4-amino-N-((1aS,6R,6aR)-3-bromo-1,1a,6,6a-tetrahydrocyclopropa[a]inden-6-yl)-7-fluoro-N-methylimidazo[1,5-a]quinoxaline-8-carboxamide] | 100 to 1000 |  |
| CS(=O)(=O)N1CCN(C(=O)c2cc3c(cc2F)nc(N)c2cncn23)C(c2ccc(C(F)(F)F)cn2)C1 (stereo not drawn) [Ff-135, (4-amino-7-fluoroimidazo[1,5-a]quinoxalin-8-yl)(4-(methylsulfonyl)-2-(5-(trifluoromethyl)pyridin-2-yl)piperazin-1-yl)methanone] | 100 to 1000 |  |
| C[C@@H]1C[C@@H]2CCc3cc(C(F)(F)F)ccc3[C@@H]2N(C(=O)c2cc3c(cc2F)nc(N)c2cncn23)C1 (racemic) [Ff-322, Rac-(4-amino-7-fluoroimidazo[1,5-a]quinoxalin-8-yl)((3R,4aS,10bR)-3-methyl-8-(trifluoromethyl)-3,4,4a,5,6,10b-hexahydrobenzo[h]quinolin-1(2H)-yl)methanone] | < 100 |  |
| CN(C(=O)c1cc2c(cc1F)nc(N)c1cncn12)[C@@H]1COc2c1ccc(Cl)c2Cl (single isomer, unassigned) [Ff-606] |  | 100 to 1000 |
| C[C@H]1CN(C(=O)c2cc3c(cc2F)nc(N)c2cncn23)[C@H]2c3ccc(-c4cnn(C(F)(F)F)c4)cc3C[C@H]2O1 [Ff-97, (4-amino-7-fluoroimidazo[1,5-a]quinoxalin-8-yl)((2S,4aS,9aR)-2-methyl-7-(1-(trifluoromethyl)-1H-pyrazol-4-yl)-2,3,9,9a-tetrahydroindeno[2,1-b][1,4]oxazin-4(4aH)-yl)methanone] | 100 to 1000 |  |
| C[C@H]1CN(C(=O)c2cc3c(cc2F)nc(N)c2cncn23)[C@H]2c3ccc(-c4cnn(C(F)F)c4)cc3C[C@H]2O1 [Ff-96, (4-amino-7-fluoroimidazo[1,5-a]quinoxalin-8-yl)((2S,4aS,9aR)-7-(1-(difluoromethyl)-1H-pyrazol-4-yl)-2-methyl-2,3,9,9a-tetrahydroindeno[2,1-b][1,4]oxazin-4(4aH)-yl)methanone] | < 100 |  |
| CO[C@@H]1Cc2cc(Br)ccc2[C@@H]1N(C)C(=O)c1cc2c(cc1F)nc(N)c1cncn12 [Ff-579, 4-amino-N-((1S,2R)-5-bromo-2-methoxy-2,3-dihydro-1H-inden-1-yl)-7-fluoro-N-methylimidazo[1,5-a]quinoxaline-8-carboxamide] |  | < 100 |
| CN(C(=O)c1cc2c(cc1F)nc(N)c1cncn12)C1CCc2nc(Cl)sc21 (stereo not drawn) [Ff-16, 4-amino-N-(2-chloro-5,6-dihydro-4H-cyclopenta[d]thiazol-6-yl)-7-fluoro-N-methylimidazo[1,5-a]quinoxaline-8-carboxamide] | 100 to 1000 |  |
| C[C@@H]1CN(C(=O)c2cc3c(cc2F)nc(N)c2cncn23)[C@H]2c3ccc(OC(F)(F)F)c(F)c3C[C@H]2O1 (single isomer, unassigned) [Ff-191] | < 100 |  |
| CC(C)N(Cc1ccc(-c2ccnn2C)cc1F)C(=O)c1cc2c(cc1F)nc(N)c1cncn12 [Ff-217, 4-amino-7-fluoro-N-(2-fluoro-4-(1-methyl-1H-pyrazol-5-yl)benzyl)-N-isopropylimidazo[1,5-a]quinoxaline-8-carboxamide] | < 100 |  |
| C[C@@H]1CN(C(=O)c2cc3c(cc2F)nc(N)c2cncn23)[C@H]2c3ccccc3C[C@H]2O1 (racemic) [Ff-56, Rac-(4-amino-7-fluoroimidazo[1,5-a]quinoxalin-8-yl)((2R,4aS,9aR)-2-methyl-2,3,9,9a-tetrahydroindeno[2,1-b][1,4]oxazin-4(4aH)-yl)methanone] | 100 to 1000 |  |
| Cc1ncn2c1c(N)nc1cnc(C(=O)N3C[C@H](C)C[C@@H]4Oc5cc(C(F)(F)F)c(F)cc5[C@@H]43)cc12 [Fg-39, (4-amino-3-methylimidazo[1,5-a]pyrido[3,4-e]pyrazin-8-yl)((3R,4aS,9bS)-8-fluoro-3-methyl-7-(trifluoromethyl)-3,4,4a,9b-tetrahydrobenzofuro[3,2-b]pyridin-1(2H)-yl)methanone] |  | < 100 |
| CN(C(=O)c1cc2c(cc1F)nc(N)c1cncn12)[C@H]1c2ccc(C(F)(F)F)cc2[C@@H]2C[C@@H]21 [Ff-253, 4-amino-7-fluoro-N-methyl-N-((1aR,6R,6aS)-3-(trifluoromethyl)-1,1a,6,6a-tetrahydrocyclopropa[a]inden-6-yl)imidazo[1,5-a]quinoxaline-8-carboxamide] | 100 to 1000 |  |
